Measured values: patent publication US6369042B1, “Antioxidative vitamin B6 analogs” (priority 1999, dated 2002)

Tested on: Rhinovirus infection
Test: Treatment of a rhinovirus infection (common cold) in a patient
Type: in vivo, human
Conditions: 50 mg orally in a water solution, after 15 minutes
Description: A patient with a common katarrhalic infection (common cold) was treated orally with 50 mg of (2RS,4R)-2-[3-Hydroxy-5-(hydroxymethyl)-2-methyl-4-pyridinyl]-4-thiazolidine carboxylic acid in a water solution. After 15 minutes the disease symptoms disappeared.

**Q.** With Cc1ncc(CO)c(C2N[C@H](C(=O)O)CS2)c1O (mixture of isomers) [(2RS,4R)-2-[3-Hydroxy-5-(hydroxymethyl)-2-methyl-4-pyridinyl]-4-thiazolidine carboxylic acid] as the compound, how does the “disease symptoms of common katarrhalic infection (common cold)” value read?
**A.** Its value is “disappeared”.
